Measurements as given in patent US12440487B2, “Method of normalizing the neutrophil to lymphocyte ratio in cancer patients with a selective glucocorticoid receptor antagonist” (Corcept Therapeutics Incorporated, priority 2019, dated 2025).
Where “and” joins values, the source holds several entries; their conditions need not be identical. Equal entries are not always repeated. Entries after “also recorded” stand apart in the source; their conditions may differ.

How the values were obtained:
[1] = test system: neutrophil-to-lymphocyte ratio (NLR); assay: Relacorilant alone, NLR in healthy subjects (NCT03508635); type: in vivo, human; conditions: 250 mg for 14 continuous days, cohort of 7 healthy subjects, none with baseline NLR greater than 3
Description: (§1) Healthy subjects were enrolled in the NCT03508635 study of relacorilant. […] (C) is the Figure legend.
(§2) The intensive NLR sampling was conducted at time 0 (morning, pre-dose) and then 2, 4, 8, 12, and 24 hours thereafter. The single NLR samples were collected in the in the morning, pre-dose. The SAD portion of this experiment used a 500 mg dose while the MAD used a once daily 250 mg dose.
(§3) Blood was also drawn in the morning, pre-dose.
The normalization of the NLR by relacorilant is thought to occur through antagonism of endogenous cortisol. If patients have elevated cortisol activity, relacorilant would be expected to normalize this activity. Alternatively, relacorilant alone could cause neutropenia (reduction in neutrophils) or lymphocytosis (increase in lymphocytes) via antagonism of normal endogenous cortisol. To distinguish these two possibilities, we assessed the effects of relacorilant alone in healthy subject with normal endogenous cortisol. After 14 administering 250 mg of relacorilant for 14 continuous days, no change in the NLR was observed across a cohort of 7 healthy subjects (FIG. 7).

[2] = test system: neutrophil-to-lymphocyte ratio (NLR); assay: Prednisone-challenge NLR study in healthy subjects (NCT03508635, SAD and MAD cohorts); type: in vivo, human
Description: Methods: Lymphocyte and neutrophil abundance were determined using standard differential complete blood count tests.
as §1, §2, §3

[3] = test system: neutrophil-to-lymphocyte ratio (NLR); assay: 7-day single-agent relacorilant lead-in, NLR in patients with advanced solid tumors (NCT02762981); type: in vivo, human; conditions: for patients who experienced a decrease in NLR / average change in NLR: 7-day relacorilant lead-in
Description: The relacorilant lead-in included daily dosing of relacorilant alone (without nab-paclitaxel) for 7 days.
Drug concentrations were determined in study NCT02762981. Blood was collected at multiple timepoints on day 7 of relacorilant dosing. Upon collection, blood was chelated with EDTA, centrifuged, and plasma was aliquoted. Bioanalytical analyses were conducted by MicroConstants (San Diego, CA, USA). In brief, human plasma samples containing relacorilant and its stable-labeled analog as an internal standard and K3EDTA as the anticoagulant were buffered with an ammonium citrate solution and extracted with 2-butanol:hexane (2.5:97.5, v/v). The samples were vortex mixed, centrifuged and the lower portion was frozen in an ultra-cold freezer. The organic portion was transferred to a clean tube and evaporated under nitrogen. The extracts were dried, reconstituted and analyzed by reversed-phase HPLC using an ACE UltraCore SuperPhenylHexyl column. The mobile phase was nebulized using heated nitrogen in a Z-spray source/interface set to electrospray positive ionization mode. The ionized compounds were detected using MS/MS.
as §3

progesterone receptor = target: T1, progesterone receptor (Homo sapiens, UniProt P06401); conditions: cited from earlier work
T1 sequence (P06401 1-933): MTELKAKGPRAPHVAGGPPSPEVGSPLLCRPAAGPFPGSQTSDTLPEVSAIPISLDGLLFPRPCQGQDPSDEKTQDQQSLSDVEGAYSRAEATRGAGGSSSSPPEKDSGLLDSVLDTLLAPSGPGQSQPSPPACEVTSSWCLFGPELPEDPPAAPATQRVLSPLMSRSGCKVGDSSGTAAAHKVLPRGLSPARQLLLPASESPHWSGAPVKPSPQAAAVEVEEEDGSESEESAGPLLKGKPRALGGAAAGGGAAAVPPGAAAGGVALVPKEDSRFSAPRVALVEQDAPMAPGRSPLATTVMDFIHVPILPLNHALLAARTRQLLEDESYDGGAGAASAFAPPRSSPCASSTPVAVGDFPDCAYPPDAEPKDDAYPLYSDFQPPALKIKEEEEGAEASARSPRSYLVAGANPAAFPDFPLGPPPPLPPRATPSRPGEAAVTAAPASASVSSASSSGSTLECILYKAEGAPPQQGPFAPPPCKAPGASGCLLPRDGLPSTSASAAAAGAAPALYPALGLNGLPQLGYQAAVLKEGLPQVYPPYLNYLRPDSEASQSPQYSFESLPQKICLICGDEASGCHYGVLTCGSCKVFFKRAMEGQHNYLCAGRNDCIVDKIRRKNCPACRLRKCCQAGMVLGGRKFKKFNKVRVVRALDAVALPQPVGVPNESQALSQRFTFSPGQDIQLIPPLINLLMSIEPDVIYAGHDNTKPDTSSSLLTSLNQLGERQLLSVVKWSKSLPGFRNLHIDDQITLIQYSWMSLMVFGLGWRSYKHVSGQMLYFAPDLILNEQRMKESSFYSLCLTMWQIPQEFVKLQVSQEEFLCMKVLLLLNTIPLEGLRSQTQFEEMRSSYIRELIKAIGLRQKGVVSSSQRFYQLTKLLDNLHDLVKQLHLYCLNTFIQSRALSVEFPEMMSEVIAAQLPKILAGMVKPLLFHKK

[4] = test system: neutrophil or lymphocyte abundance in the blood; conditions: healthy men / healthy subjects; cited from earlier work
[5] = target: glucocorticoid receptor (GR) (Homo sapiens, UniProt P04150); conditions: binds to GR, PR and AR; cited from earlier work
Chain of glucocorticoid receptor (GR) (P04150 whole entry, species assumed): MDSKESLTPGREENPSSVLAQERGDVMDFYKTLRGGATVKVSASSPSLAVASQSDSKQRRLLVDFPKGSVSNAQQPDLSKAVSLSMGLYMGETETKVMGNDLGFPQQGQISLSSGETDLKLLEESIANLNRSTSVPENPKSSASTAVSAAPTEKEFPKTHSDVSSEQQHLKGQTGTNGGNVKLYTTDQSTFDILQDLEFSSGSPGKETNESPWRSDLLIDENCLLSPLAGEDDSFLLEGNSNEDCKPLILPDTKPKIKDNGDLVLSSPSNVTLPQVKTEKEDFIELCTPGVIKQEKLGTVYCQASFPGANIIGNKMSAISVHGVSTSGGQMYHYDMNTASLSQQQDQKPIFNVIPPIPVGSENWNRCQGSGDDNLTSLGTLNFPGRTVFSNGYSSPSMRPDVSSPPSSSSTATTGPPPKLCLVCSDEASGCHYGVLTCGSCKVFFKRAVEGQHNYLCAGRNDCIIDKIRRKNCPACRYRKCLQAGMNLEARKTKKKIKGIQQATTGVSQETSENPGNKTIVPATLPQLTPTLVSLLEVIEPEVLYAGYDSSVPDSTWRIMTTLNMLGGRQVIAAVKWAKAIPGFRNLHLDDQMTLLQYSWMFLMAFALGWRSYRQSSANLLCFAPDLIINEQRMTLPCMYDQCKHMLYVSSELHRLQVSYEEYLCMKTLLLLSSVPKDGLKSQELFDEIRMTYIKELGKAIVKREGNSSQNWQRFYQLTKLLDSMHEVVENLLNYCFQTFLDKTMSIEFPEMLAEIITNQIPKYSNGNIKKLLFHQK

## Cn1cc(S(=O)(=O)N2CCC3=Cc4c(cnn4-c4ccc(F)cc4)C[C@]3(C(=O)c3cc(C(F)(F)F)ccn3)C2)cn1 [relacorilant, (R)-(1-(4-fluorophenyl)-6-((1-methyl-1H-pyrazol-4-yl)sulfonyl)-4,4a,5,6,7,8-hexahydro-1H-pyrazolo[3,4-g]isoquinolin-4a-yl)(4-(trifluoromethyl)pyridin-2-yl)methanone]
[1]
  change in the NLR with relacorilant alone: no change; also recorded: does not change
[2]; 14 consecutive days of 250 mg/day relacorilant, then 25 mg prednisone, healthy subjects
  effect on prednisone-induced NLR increase: significantly blunted; also recorded: reversed the effects
[2]; MAD cohort, 25 mg prednisone after 14 consecutive days of 250 mg/day relacorilant
  NLR area under the curve: 9.6 NLR*hr
[2]; SAD cohort, single 500 mg dose relacorilant administered with 25 mg prednisone
  NLR area under the curve: 12.5 NLR*hr
[2]; relacorilant co-administration with 25 mg prednisone, healthy subjects (n=9)
  effect on prednisone-induced NLR increase: reversed this effect
[2]; single 500 mg dose relacorilant with 25 mg prednisone, healthy subjects
  effect on prednisone-induced NLR increase: significantly blunted; also recorded: reversed the effects
[3]; patients with AUC between 2011-8000 ng*hr/ml (6/13)
  patients who experienced a decrease in NLR: 46%
[3]; patients with AUC between 3740-8000 ng*hr/ml
  average change in NLR: −6.1%
[3]; patients with AUC<2011 ng*hr/ml or Cmax<442 ng/ml
  patients who experienced a decrease in NLR: None
[3]; patients with Cmax between 442-1000 ng/ml (6/9)
  patients who experienced a decrease in NLR: 67%
[3]; patients with Cmax between 595-836 ng/ml
  average change in NLR: −4.4%
[3]; ovarian cancer patient 038-4004, 7-day relacorilant lead-in
  NLR change from baseline (CfB): −46% and −55%
[3]; ovarian cancer patient 038-4004, 7-day relacorilant lead-in, NLR before 5.5
  NLR after relacorilant lead-in: 2.5
Progesterone receptor
  antagonism of the progesterone receptor: does not antagonize

## CC#C[C@]1(O)CC[C@H]2[C@@H]3CCC4=CC(=O)CCC4=C3[C@@H](c3ccc(N(C)C)cc3)C[C@@]21C [mifepristone, 11β-(4-dimethylaminophenyl)-17β-hydroxy-17α-(1-propynyl)-estra-4,9-dien-3-one]
[4]
  effect on neutrophil or lymphocyte abundance in the blood: does not alter
[5]
  selectivity for GR: not selective

## C[C@]12C=CC(=O)C=C1CC[C@@H]1[C@@H]2C(=O)C[C@@]2(C)[C@H]1CC[C@]2(O)C(=O)CO [prednisone, 17α,21-dihydroxypregna-1,4-diene-3,11,20-trione, reference compound]
[2]; 25 mg prednisone after 14 consecutive days of placebo, different subjects
  NLR area under the curve: 72 NLR*hr
[2]; 9 healthy subjects, single dose 25 mg prednisone, baseline less than 2, returned to baseline after 24 hours
  NLR at 8 hours post prednisone: greater than 6
[2]; MAD cohort, 25 mg prednisone alone, same subjects on Day −5
  NLR area under the curve: 61.7 NLR*hr
[2]; SAD cohort, 25 mg prednisone alone
  NLR area under the curve: 54.6 NLR*hr
[2]; healthy subjects (n=9), 25 mg prednisone
  acute increase of the neutrophil-to-lymphocyte ratio (NLR): 4.7 fold
